Results from patent US20070033061A1 (priority 2005, published 2007).
Values after ≈ are worked out from the molar mass of the structure shown.

Experiments:
Assay type in all cases: cell-based
[1] = tested on: membrane permeabilized E. coli; details: for enhancement of the activity of ciprofloxacin: at 25 μM
E. coli ΔrecB strains = tested on: E. coli ΔrecB strains
[2] = tested on: E. coli strain MG1655 and mutated strains; assay: microbe, parasite or virus in culture
[3] = tested on: E. coli MG1655 loss of function strains; assay: microbe, parasite or virus in culture
E. coli wild-type = tested on: E. coli wild-type
[4] = tested on: E. coli strains RTC0141-RTC0148
[5] = tested on: P. aeruginosa strains RTC1014-RTC1019

NCCCCCCNc1ccnc2cc(Cl)ccc12 [Formula III]
ciprofloxacin sensitization [1]: enhanced ciprofloxacin sensitivity

Cn1c2ccccc2n2c3ncccc3c(=O)c(C#N)c12 [Formula IIb]
enhancement of the activity of ciprofloxacin [1]: enhanced the activity of ciprofloxacin

Cn1c2ccccc2n2c3cnccc3c(=O)c(C#N)c12 [Formula IIc]
enhancement of the activity of ciprofloxacin [1]: enhanced the activity of ciprofloxacin

Nc1ccc2noc3c2c1C(=O)c1ccccc1-3 [Formula Ia]
MIC shift in ciprofloxacin responsiveness [1]: 10 ×

CO[C@@]12[C@H](COC(N)=O)C3=C(C(=O)C(C)=C(N)C3=O)N1C[C@@H]1N[C@@H]12 [Mitomycin C]
Mitomycin C MIC lower compared to recB+ strains (E. coli ΔrecB strains): about 8 fold

O=C(O)c1cn(C2CC2)c2cc(N3CCNCC3)c(F)cc2c1=O [ciprofloxacin]
ciprofloxacin MIC, gyrA S83Δ [2]: 0.25 mg/L | MIC ([2]; Escherichia coli, MG1655, read-out: ciprofloxacin MIC): < 0.001 mg/L | ciprofloxacin MIC, gyrA S83Δ [3]: 0.25 mg/L | MIC ([3]; Escherichia coli, MG1655, read-out: ciprofloxacin MIC, gyrA S83L): 0.45 mg/L (≈ 1.36 µM) | cells killed (E. coli wild-type): 99%

B1: lambda gam: protein used by λ phage to inhibit E. coli RecB; overexpressed from an arabinose-inducible vector (protein, UniProt P03702 1-138, looked up)
Host-nuclease inhibitor …: MDINTETEIKQKHSLTPFPVFLISPAFRGRYFHSYFRSSAMNAYYIQDRLEAQSWARHYQQLAREEKEAELADDMEKGLPQHLFESLCIDHLQRHGASKKSITRAFDDDVEFQERMAEHIRYMVETIAHHQVDIDSEV
decrease in the ciprofloxacin IC50 on overexpression of lambda gam [4]: 5-8 fold | effect of lambda gam overexpression on ciprofloxacin sensitivity [4]: no effect | decrease in the ciprofloxacin MIC on overexpression of lambda gam [5]: 2-4 fold | effect of lambda gam overexpression on ciprofloxacin sensitivity [5]: no effect
